Structure (SMILES) | boiling point [°C] | melting point [°C] | other results
CC(C)CCCCCOC(=O)c1ccccc1C(=O)OCCCCCC(C)C | – | – | log10 Koc (L/kg): 3.21; log10 vapour pressure (mmHg): -5.26
CC(C)=CCC(C)C | 112 | – | log10 vapour pressure (mmHg): 1.4
C=C(CC)c1ccccc1 | 182 | – | –
COC(=O)C(F)(F)C(F)(F)C(F)(F)F | 80 | -86 | –
CC(C)(C)NCC(O)COc1cccc2c1C[C@H](O)[C@H](O)C2 (stereo partly drawn) | – | 130 | –
CCCCCCCCCCCCCC(=O)OC(C)C | – | 3 | log10 vapour pressure (mmHg): -4.03
CN(N=O)c1ccc(N=O)cc1 | – | 101 | –
CCCCCCCCCCCCCCCCCCCCCCCC | 391 | 54 | log10 biodegradation half-life (days): 2.06; log10 vapour pressure (mmHg): -5.39; ready biodegradability: readily biodegradable
c1ccc2c(c1)ccc1c3ccccc3ccc21 | 448 | 258 | log10 Henry constant (atm·m³/mol): -5.28; log10 biodegradation half-life (days): 2.58; log10 vapour pressure (mmHg): -8.21; log10 biotransformation half-life (days) (fish): 0.59
O=C(Cl)c1cc([N+](=O)[O-])cc([N+](=O)[O-])c1 | – | 74 | –
CCCCCCCCCCCCCCCCCCCCBr | – | 37.5 | log10 vapour pressure (mmHg): -6.08
OCCN(CCO)c1ccccc1 | – | 57 | –
CS(=O)(=O)NC(=O)c1cc(Oc2ccc(C(F)(F)F)cc2Cl)ccc1[N+](=O)[O-] | – | 220 | log10 Koc (L/kg): 1.78
c1ccc(C(=C(c2ccccc2)c2ccccc2)c2ccccc2)cc1 | 420 | 225 | –
C=CC(C)(C)CC | 77.5 | -134 | log10 vapour pressure (mmHg): 2.02
COC(=O)CC[N+](=O)[O-] | – | – | ready biodegradability: readily biodegradable
O=C(O)Cc1cccc([N+](=O)[O-])c1 | – | 118 | –
CCNC(=O)NC(=O)/C(C#N)=N/OC | – | 160 | log10 Koc (L/kg): 2.09; log10 vapour pressure (mmHg): -5.95
CCOC(OCC)N(C)C | 129 | – | –
Cc1ccc(C)c2ncccc12 | 266 | 4.5 | –
NC1CCC(CC2CCC(N)CC2)CC1 (stereo not drawn) | 320 | 15 | –
NC(=O)Oc1ccc(Cc2ccccc2)cc1 | – | 148 | –

Structure (SMILES) | boiling point [°C] | melting point [°C] | other results
C[Si](C)(C)O[Si](C)(C)O[Si](C)(C)O[Si](C)(C)O[Si](C)(C)O[Si](C)(C)O[Si](C)(C)O[Si](C)(C)C | – | – | log10 vapour pressure (mmHg): -2.5
Cc1cc(Cl)ccc1Cl | 200 | 5 | –
CC(C)(C)C(=O)OC(=O)C(C)(C)C | 193 | – | log10 vapour pressure (mmHg): -0.356
CCCC(C(C)=O)C(=O)OCC (stereo not drawn) | 224 | – | –
CCCOC(=O)CCC(=O)OCCC | 251 | -5.9 | –
O=C(O)c1ccccc1Cc1ccccc1 | – | 118 | –
CCN(CC)C(=S)[S-].[Na+] | – | 98 | –
CNC(=S)NCO | – | 89 | –
O=C(O)c1cccc(I)c1 | – | 188 | –
ClCC#CCCl | 166 | – | –
O=Cc1ccc2ccccc2c1 | – | 62 | –
N#CSc1ccccc1 | 232 | – | –
CCn1cc(C(=O)O)c(=O)c2ccc(C)nc21 | – | 230 | –
c1cnc2cccnc2c1 | – | 75 | –
COc1ccc(NC(=O)N(C)C)cc1 | – | – | log10 Koc (L/kg): 1.4
O=C(O)c1ccc(C(=O)O)c(C(=O)O)c1 | – | 219 | –
C=CCN(CC=C)C(=O)COC(=O)c1ccccc1 | – | 42.5 | –
O=C(O)C=Cc1cccc([N+](=O)[O-])c1 | – | 179 | –
C/N=C(\NC)NCc1ccccc1 | – | 196 | –
C=C(C)c1ccc(C)c2ccc(C=O)c-2c1 | – | 58 | –
C1CCC2=NCCCN2CC1 | – | – | ready biodegradability: not readily biodegradable
Fc1c(F)c(F)c(-c2c(F)c(F)c(F)c(F)c2F)c(F)c1F | 206 | 67.5 | –

Structure (SMILES) | boiling point [°C] | melting point [°C] | other results
CC(=O)CCCCBr | 216 | – | –
O=C([O-])C(F)(F)C(F)F.[Na+] | – | – | log10 vapour pressure (mmHg): -3.52
Cc1cccc(Cl)c1N | 215 | 2 | –
CCOC(=O)C(C)Oc1ccc(Oc2cnc3cc(Cl)ccc3n2)cc1 (stereo not drawn) | – | 84.2 | log10 Koc (L/kg): 2.71; log10 vapour pressure (mmHg): -8.19
O=S(=O)(Cl)C(F)(F)F | 30.5 | – | –
NC(=O)Nc1ccc(F)cc1 | – | – | log10 Koc (L/kg): 1.52
FC(F)(F)C(F)(F)C(F)(F)C(F)(F)C(F)(F)C(F)(F)C(F)(F)C(F)(F)C(F)(F)Br | 159 | – | –
Cc1csc(NS(=O)(=O)c2ccc(N)cc2)n1 | – | 237 | –
O=C(O)/C(F)=C/c1ccccc1 | 290 | 158 | –
CC12CCC(CC1=NO)C2(C)C (stereo not drawn) | – | 118 | –
CO[C@H]1[C@H](O)[C@H](O[C@H]2CC[C@@]3(C)[C@H](CC[C@@H]4[C@@H]3CC[C@]3(C)[C@@H](C5=CC(=O)OC5)CC[C@]43O)C2)O[C@@H](C)[C@@H]1O | – | 221 | –
CC[Si](CC)(CC)O[Si](CC)(CC)CC | 233 | – | –
Oc1c(F)c(F)c(F)c(F)c1F | 146 | 32.8 | log10 vapour pressure (mmHg): 0.464
O=C(n1ccnc1)n1ccnc1 | – | 119 | –
FCC(F)(F)OC(F)F | 43 | – | log10 vapour pressure (mmHg): 2.57
O=[N+]([O-])CCCl | 174 | – | –
CC1CNCC(C)C1 (stereo not drawn) | 144 | – | –
O=C(C(F)(F)F)C(F)(F)F | -27.4 | -125 | log10 vapour pressure (mmHg): 3.35
Nc1cc(Cl)c(S(N)(=O)=O)cc1S(N)(=O)=O | – | 254 | –
CN(C)c1cccc2ccccc12 | 280 | – | –
CCC(C)O (stereo not drawn) | – | – | log10 Henry constant (atm·m³/mol): -5.04; log10 Koa: 3.85; log10 vapour pressure (mmHg): 1.26; ready biodegradability: readily biodegradable
O=C(NCO)NS(=O)(=O)c1ccc(NC(=O)c2ccccc2C(=O)O)cc1 | – | 162 | –

Structure (SMILES) | boiling point [°C] | melting point [°C] | other results
CC(=O)CCC(C)C | 144 | -74 | log10 vapour pressure (mmHg): 0.761
CCn1cc(C(=O)O)c(=O)c2cnc(N3CCCC3)nc21 | – | 315 | –
O=Nc1ccc(Nc2ccccc2)cc1 | 292 | 143 | ready biodegradability: not readily biodegradable
O=c1[nH]c(=O)n([C@H]2C[C@H](O)[C@@H](CO)O2)cc1Br | – | 192 | –
O=C1CCCCCCCCC1 | – | 28 | –
C=CCOCC=C | 94 | -6 | –
CCC(=O)c1cc(C)ccc1O | – | 2 | –
CC(C)CCC[C@@H](C)[C@H]1CC[C@H]2C3=CC=C4C[C@@H](O)CC[C@]4(C)[C@H]3CC[C@]12C | – | 150 | –
CCCc1ccc(OC)cc1 | 212 | – | –
COc1ccc(C(=O)Cl)cc1 | 262 | 24.5 | –
O=C1c2c(O)ccc(Nc3ccccc3)c2C(=O)c2c([N+](=O)[O-])ccc(O)c21 | – | – | ready biodegradability: not readily biodegradable
c1ccc(Cc2ccccc2)cc1 | 265 | 25.2 | log10 vapour pressure (mmHg): -2.09; ready biodegradability: not readily biodegradable; log10 BCF (fish): 2.94
CCCS(=O)(=O)CCC | 270 | 29.5 | log10 vapour pressure (mmHg): -2.39
O=C1C(F)=C(F)C(=O)C(F)=C1F | – | 184 | –
C#CCOc1cc(-n2nc3n(c2=O)CCCC3)c(Cl)cc1Cl | – | 168 | log10 vapour pressure (mmHg): -11.1
O=C(O)c1ccccc1OP(=O)(O)O | – | 169 | –
CN1CCC[C@H]1c1cccnc1 | 247 | -79 | log10 Koc (L/kg): 2.01; log10 vapour pressure (mmHg): -1.42
CC(C)OC(=O)C(C)Cl (stereo not drawn) | 152 | – | –
NCCCCCCCCCCN | – | 62.5 | –
COc1cc(NS(=O)(=O)c2ccc(N)cc2)nc(C)n1 | – | 146 | –
CCOC(=O)/C=C\C(=O)OCC | 218 | -3.65 | log10 vapour pressure (mmHg): -0.979

From the OPERA property sets (Mansouri et al. 2018)
